Experimental data taken from US20120252721A1 (priority 2011, published 2012).

How the values were obtained:
[1] = system: HCV genotype 1b Con1 strain subgenomic luciferase replicon (Zluc); experiment: Luciferase replicon assay, genotype 1b; type: cell-based; conditions: Hepatitis C virus
How it was run: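 Replicon-bearing Huh-7 cells (1×10^4 H1a-luc or 7.5×10^3 Zluc per well) dosed 3 h after plating with ten 5-fold compound dilutions, 72 h at 37 °C/5% CO2. Luciferase measured by ONE-glo luminescence; EC50 from dose-response fits, replicon-free Huh-7 as negative control.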

[2] = system: 1a-luc Y93C (HCV genotype 1a replicon); experiment: Luciferase replicon transient transfection assay, 1a-luc Y93C; type: cell-based, hepatitis C virus; conditions: for EC50: Hepatitis C virus, 96 h, Huh7.5 cells, 4 days
Protocol: (§1) The luciferase replicon transient transfection assay measures the ability of a test compound to inhibit the replication of a transiently-transfected HCV luciferase-bearing wild-type or mutant replicon in cured human hepatoma cells (Huh7.5). The inhibition of HCV replication was measured by quantification of luciferase protein expression. This assay has been validated using a panel of genotype 1a and 1b replicons bearing mutations known to be associated with resistance to BMS-790052. Briefly, subconfluent Huh7.5 cells were electroporated with 10 μg of wild-type or mutant luciferase-bearing HCV replicon RNA. The cells were then seeded in 96-well opaque white plates at 3×10^4 cells/well in 150 μL/well and incubated for 4 hrs at 37° C./5% CO2. Ten 1:5 serial dilutions of each test compound were made in media (DMEM containing glucose, L-glutamine and sodium pyruvate, 10% fetal bovine serum, 100 IU/mL penicillin, 100 μg/mL streptomycin, 2 mM GlutaMAX, and 1×MEM non-essential amino acids (Mediatech, Inc. and Invitrogen Corp.)) at concentrations that were 4× higher than the final concentrations to be tested and 50 μL/well was added to the transfected cells. Untreated, mock-transfected cells served as a negative control of luciferase expression. The plates were incubated at 37° C./5% CO2 for 4 days whereupon the media was removed and 50 μL of ONE-glo luciferase substrate (Promega) was added to each well. The plates were agitated on a rotating platform at room temperature for 3 min and read in a Victor^3V microplate reader (Perkin-Elmer) using a 700 nm cut-off filter with a 1 sec read time. EC50 values were calculated from dose response curves from the resulting best-fit equations determined by Microsoft Excel and XLfit 4.1 software.

[3] = system: 1a-luc Y93H (HCV genotype 1a replicon); experiment: Luciferase replicon transient transfection assay, 1a-luc Y93H; type: cell-based, hepatitis C virus; conditions: for EC50: Hepatitis C virus, 96 h, Huh7.5 cells, 4 days
Protocol: as §1

[4] = system: 1a-luc Q30E (HCV genotype 1a replicon); experiment: Luciferase replicon transient transfection assay, 1a-luc Q30E; type: cell-based, hepatitis C virus; conditions: for EC50: Hepatitis C virus, 96 h, Huh7.5 cells, 4 days
Protocol: as §1

[5] = system: ZS11-luc L31M (HCV genotype 1b replicon); experiment: Luciferase replicon transient transfection assay, ZS11-luc L31M; type: cell-based, hepatitis C virus; conditions: for EC50: Hepatitis C virus, 96 h, Huh7.5 cells, 4 days
Protocol: as §1

[6] = system: ZS11-luc L31V (HCV genotype 1b replicon); experiment: Luciferase replicon transient transfection assay, ZS11-luc L31V; type: cell-based, hepatitis C virus; conditions: for EC50: Hepatitis C virus, 96 h, Huh7.5 cells, 4 days
Protocol: as §1

[7] = system: ZS11-luc Y93H (HCV genotype 1b replicon); experiment: Luciferase replicon transient transfection assay, ZS11-luc Y93H; type: cell-based, hepatitis C virus; conditions: for EC50: Hepatitis C virus, 96 h, Huh7.5 cells, 4 days
Protocol: as §1

[8] = system: 1a-luc L31V (HCV genotype 1a replicon); experiment: Luciferase replicon transient transfection assay, 1a-luc L31V; type: cell-based, hepatitis C virus; conditions: for EC50: Hepatitis C virus, 96 h, Huh7.5 cells, 4 days
Protocol: as §1

H1a-luc or Zluc cells = experiment: in vitro; type: cell-based, human; conditions: Table 1B, cellular viability
How it was run: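 Cytotoxicity counter-screen in which the H1a-luc or Zluc cells were compound-treated and viability was read with the CellTiter 96 AQueous One (MTS) reagent by absorbance at 490 nm. CC50 values came from curve fitting.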

[9] = system: ZS11-luc Y93C (HCV genotype 1b replicon); experiment: Luciferase replicon transient transfection assay, ZS11-luc Y93C; type: cell-based, hepatitis C virus; conditions: for EC50: Hepatitis C virus, 96 h, Huh7.5 cells, 4 days
Protocol: as §1

[10] = system: ZS11-luc L31F (HCV genotype 1b replicon); experiment: Luciferase replicon transient transfection assay, ZS11-luc L31F; type: cell-based, hepatitis C virus; conditions: for EC50: Hepatitis C virus, 96 h, Huh7.5 cells, 4 days
Protocol: as §1

[11] = system: 1a-luc WT (HCV genotype 1a replicon); experiment: Luciferase replicon transient transfection assay, 1a-luc WT; type: cell-based; conditions: Hepatitis C virus, 96 h, Huh7.5 cells, 4 days
Protocol: as §1

[12] = system: 1a-luc Y93N (HCV genotype 1a replicon); experiment: Luciferase replicon transient transfection assay, 1a-luc Y93N; type: cell-based, hepatitis C virus; conditions: for EC50: Hepatitis C virus, 96 h, Huh7.5 cells, 4 days
Protocol: as §1

[13] = system: 1a-luc Q30H (HCV genotype 1a replicon); experiment: Luciferase replicon transient transfection assay, 1a-luc Q30H; type: cell-based, hepatitis C virus; conditions: for EC50: Hepatitis C virus, 96 h, Huh7.5 cells, 4 days
Protocol: as §1

Compound | EC50 [1] | Ratio [2] | EC50 [2] | Ratio [3] | EC50 [3] | Ratio [4] | EC50 [4] | Ratio [5] | EC50 [5] | Ratio [6] | EC50 [6] | Ratio [7] | EC50 [7] | Ratio [8] | EC50 [8] | CC50 (H1a-luc or Zluc cells) | Ratio [9] | EC50 [9] | Ratio [10] | EC50 [10] | also measured
COC(=O)N[C@H](C(=O)N1CCC[C@H]1c1ncc(-c2ccc(-c3csc4c(-c5cnc([C@@H]6CCCN6C(=O)[C@@H](NC(=O)OC)C(C)C)[nH]5)csc34)cc2)[nH]1)C(C)C [Compound A15, [(S)-1-((S)-2-{4-[4-(6-{2-[(S)-1-((S)-2-methoxycarbonylamino-3-methyl-butyryl)-pyrrolidin-2-yl]-3H-imidazol-4-yl}-thieno[3,2-b]thiophen-3-yl)-phenyl]-1H-imidazol-2-yl}-pyrrolidine-1-carbonyl)-2-methyl-propyl]-carbamic acid methyl ester] | < 0.1 nM | – | – | – | – | – | – | – | – | – | – | – | – | – | – | – | – | – | – | – | –
COC(=O)N[C@H](C(=O)N1CCC[C@H]1c1ncc(-c2ccc(-c3csc4c(-c5cnc([C@@H]6CCCN6C(=O)[C@H](NC(=O)OC(C)(C)C)c6ccccc6)[nH]5)csc34)cc2)[nH]1)C(C)C [Compound A111, [(S)-1-((S)-2-{4-[4-(6-{(S)-2-[1-((R)-2-tert-butoxycarbonylamino-2-phenyl-acetyl)-pyrrolidin-2-yl]-3H-imidazol-4-yl}-thieno[3,2-b]thiophen-3-yl)-phenyl]-1H-imidazol-2-yl}-pyrrolidine-1-carbonyl)-2-methyl-propyl]-carbamic acid methyl ester] | < 0.1 nM | 146 | 6 nM | >4859 | > 198 nM | 957 | 47 nM | 7 | 0.01 nM | 51 | 0.09 nM | 48 | 0.08 nM | 768 | 36 nM | > 75000 nM | 4 | 0.006 nM | 8 | 0.01 nM | EC50 [11]: 0.04 nM; Ratio [12]: >11,202; EC50 [12]: > 454 nM; EC50 [13]: 2 nM
COC(=O)N[C@H](C(=O)N1CCC[C@H]1c1nc2cc(-c3csc4c(-c5ccc(-c6cnc([C@@H]7CCCN7C(=O)[C@H](NC(=O)OC)c7ccccc7)[nH]6)cc5)csc34)ccc2[nH]1)C(C)C [Compound A169, [(S)-1-((S)-2-{6-[6-(4-{(S)-2-[1-((R)-2-methoxycarbonylamino-2-phenyl-acetyl)-pyrrolidin-2-yl]-3H-imidazol-4-yl}-phenyl)-thieno[3,2-b]thiophen-3-yl]-1H-benzoimidazol-2-yl}-pyrrolidine-1-carbonyl)-2-methyl-propyl]-carbamic acid methyl ester] | < 0.1 nM | 40 | 0.08 nM | 4428 | 9 nM | 422 | 0.9 nM | 4 | 0.009 nM | 14 | 0.03 nM | 82 | 0.2 nM | 425 | 0.9 nM | > 75000 nM | 3 | 0.006 nM | 4 | 0.01 nM | EC50 [11]: 0.002 nM; Ratio [12]: 14,363; EC50 [12]: 30 nM; Ratio [13]: 24; EC50 [13]: 0.05 nM
COC(=O)N[C@H](C(=O)N1CCC[C@H]1c1ncc(-c2ccc(-c3csc4c(-c5ccc6[nH]c([C@@H]7CCCN7C(=O)[C@H](NC(=O)OC)c7ccccc7)nc6c5)csc34)cc2)[nH]1)C(C)C [Compound A172, [(S)-1-((S)-2-{5-[4-(6-{(S)-2-[1-((R)-2-Methoxycarbonylamino-2-phenyl-acetyl)-pyrrolidin-2-yl]-3H-benzoimidazol-5-yl}-thieno[3,2-b]thiophen-3-yl)-phenyl]-1H-imidazol-2-yl}-pyrrolidine-1-carbonyl)-2-methyl-propyl]-carbamic acid methyl ester] | < 0.1 nM | 96 | 0.4 nM | 5427 | 21 nM | 423 | 2 nM | 3 | 0.01 nM | 9 | 0.04 nM | 56 | 0.3 nM | 695 | 3 nM | > 75000 nM | 2 | 0.01 nM | 4 | 0.02 nM | EC50 [11]: 0.004 nM; Ratio [12]: 22,328; EC50 [12]: 81 nM; Ratio [13]: 21; EC50 [13]: 0.08 nM
